ChEMBL document CHEMBL4265917, “Antibacterial and antioxidant activities for natural and synthetic dual-active compounds” (Eur J Med Chem, 2018)
Values after ≈ are worked out from the molar mass of the structure shown.

What was measured:
[1] = system: Escherichia coli; assay: Antibacterial activity against Escherichia coli K-12 MG1655 assessed as bacterial growth inhibition after 24 hrs by serial dilutoin method; format: functional; settings: K-12 substr. MG1655, 24 h
[2] = Antioxidant activity assessed as DPPH free radical scavenging activity incubated for 30 min by UV-vis spectrophotometric analysis; format: functional
[3] = Antioxidant activity assessed as DPPH free radical scavenging activity; format: functional
[4] = system: Enterococcus faecalis; assay: Antibacterial activity against Enterococcus faecalis; format: functional
[5] = system: Staphylococcus aureus; assay: Antibacterial activity against Staphylococcus aureus; format: functional
[6] = system: Escherichia coli; assay: Antibacterial activity against Escherichia coli KCTC 1924 after 20 to 36 hrs by disc diffusion method; format: functional
[7] = system: Staphylococcus aureus; assay: Antibacterial activity against Staphylococcus aureus KCTC 1916 after 20 to 36 hrs by disc diffusion method; format: functional
[8] = system: Staphylococcus aureus; assay: Antibacterial activity against methicillin-resistant Staphylococcus aureus; format: functional
[9] = Antioxidant activity assessed as DPPH free radical scavenging activity incubated for 30 mins in dark condition; format: functional
[10] = system: Bacillus subtilis; assay: Antibacterial activity against Bacillus subtilis ATCC 11562 by colorimetric based broth dilution method; format: functional, organism-based
[11] = system: Pseudomonas amygdali pv. lachrymans; assay: Antibacterial activity against Pseudomonas syringae pv. lachrymans ATCC 11921 by colorimetric based broth dilution method; format: functional, organism-based
[12] = system: Pseudomonas syringae; assay: Antibacterial activity against Pseudomonas glycinea FSB 40 after 18 to 24 hrs by microdilution method; format: functional, Pseudomonas savastanoi pv. glycinea
[13] = system: Staphylococcus aureus; assay: Antibacterial activity against Staphylococcus aureus ATCC 25923 after 18 to 24 hrs by microdilution method; format: functional
[14] = system: Enterobacter cloacae; assay: Antibacterial activity against Enterobacter cloacae FSB 22 after 18 to 24 hrs by microdilution method; format: functional
[15] = system: Bacillus subtilis; assay: Antibacterial activity against Bacillus subtilis FSB 2 after 18 to 24 hrs by microdilution method; format: functional
[16] = system: Klebsiella pneumoniae; assay: Antibacterial activity against Klebsiella pneumoniae FSB 26 after 18 to 24 hrs by microdilution method; format: functional
[17] = system: Micrococcus luteus; assay: Antibacterial activity against Micrococcus lysodeikticus ATCC 4698 after 18 to 24 hrs by microdilution method; format: functional
[18] = system: Staphylococcus aureus; assay: Antibacterial activity against Staphylococcus aureus FSB 30 after 18 to 24 hrs by microdilution method; format: functional
[19] = system: Pseudomonas savastanoi pv. phaseolicola; assay: Antibacterial activity against Pseudomonas phaseolicola FSB 29 after 18 to 24 hrs by microdilution method; format: functional
[20] = system: Escherichia coli; assay: Antibacterial activity against Escherichia coli ATCC 25922 after 18 to 24 hrs by microdilution method; format: functional
[21] = system: Azotobacter chroococcum; assay: Antibacterial activity against Azotobacter chroococcum FSB 14 after 18 to 24 hrs by microdilution method; format: functional
[22] = Antioxidant activity assessed as DPPH free radical scavenging activity after 30 to 60 mins by UV-vis spectrophotometric analysis; format: functional
[23] = system: Bacillus mycoides; assay: Antibacterial activity against Bacillus mycoides FSB 1 after 18 to 24 hrs by microdilution method; format: functional
[24] = system: Pseudomonas fluorescens; assay: Antibacterial activity against Pseudomonas fluorescens FSB 28 after 18 to 24 hrs by microdilution method; format: functional
[25] = system: Pectobacterium carotovorum; assay: Antibacterial activity against Erwinia carotovora FSB 31 after 18 to 24 hrs by microdilution method; format: functional
[26] = system: Staphylococcus aureus; assay: Antibacterial activity against methicillin-resistant Staphylococcus aureus after 24 hrs by microbroth dilution method; format: functional
[27] = system: Bacillus cereus; assay: Antibacterial activity against Bacillus cereus by turbidity assay; format: functional
[28] = system: Escherichia coli; assay: Antibacterial activity against Escherichia coli by turbidity assay; format: functional
[29] = system: Proteus vulgaris; assay: Antibacterial activity against Proteus vulgaris by turbidity assay; format: functional
[30] = system: Staphylococcus aureus; assay: Antibacterial activity against Staphylococcus aureus by turbidity assay; format: functional
[31] = system: Escherichia coli; assay: Antibacterial activity against Escherichia coli after 18 hrs by CLSI broth microdilution method; format: functional
[32] = system: Staphylococcus aureus; assay: Antibacterial activity against Staphylococcus aureus after 18 hrs by CLSI broth microdilution method; format: functional
[33] = system: Staphylococcus aureus; assay: Antibacterial activity against Staphylococcus aureus after 16 hrs by broth microdilution method; format: functional
[34] = system: Escherichia coli; assay: Antibacterial activity against Escherichia coli after 16 hrs by broth microdilution method; format: functional

With `O=C(/C=C/c1ccc(O)c(O)c1)O[C@H](Cc1ccc(O)c(O)c1)C(=O)O` [ROSMARINIC ACID] the MIC [1] was 250 µg/mL (≈ 694 µM) and the IC50 [2] was 0.4 µg/mL (≈ 1.11 µM).

Work on `O=C(/C=C/c1ccc(O)c(O)c1)O[C@@H]1C[C@](O)(C(=O)O)C[C@@H](O)[C@H]1O` [CHLOROGENIC ACID] yielded an EC50 [3] of 13.8 µg/mL (≈ 38.9 µM), an MIC [4] of 32 to 128 µg/mL (≈ 90.3 to 361 µM) and an MIC [5] of 32 to 128 µg/mL (≈ 90.3 to 361 µM).

Work on `O=C(/C=C/c1ccc(O)c(O)c1)O[C@@H]1C[C@@](O)(C(=O)O)C[C@@H](O)[C@@H]1O` yielded an EC50 [3] of 13.4 µg/mL (≈ 37.8 µM).

`Oc1ccc2ccccc2c1-c1c[nH]c2ccc(F)cc12` showed an MIC [6] of 8.71 µg/mL (≈ 31.4 µM), an EC50 [2] of 3 µg/mL (≈ 10.8 µM) and an MIC [7] of 7.32 µg/mL (≈ 26.4 µM).

For `COc1cc(/C=C/C(=O)CC(=O)/C=C/c2ccc(O)c(OC)c2)ccc1O` [CURCUMIN], the IC50 [3] was 28 µg/mL (≈ 76 µM) and the MIC [8] was 125 to 250 µg/mL (≈ 339 to 679 µM).

Work on `COc1cc(O)c2c(=O)oc3c(O)c(O)cc(C)c3c2c1` yielded an EC50 [9] of 68.3 µM, an IC50 [10] of 29 µM and an IC50 [11] of 7 µM.

`Cc1c(-c2cc(-c3ccc(F)cc3)nc(N)n2)nnn1-c1ccc(Cl)c(Cl)c1` gave an IC50 [9] of 59.07 µg/mL (≈ 142 µM).

In the case of `CC(Nc1ccc([N+](=O)[O-])cc1)c1c(O)c2ccccc2oc1=O` (stereo unspecified), the MIC [12] is reported as 3.9 to 31.2 µg/mL (≈ 12 to 95.6 µM), the MIC [13] is reported as 3.9 to 31.2 µg/mL (≈ 12 to 95.6 µM) and the MIC [14] is reported as 3.9 to 31.2 µg/mL (≈ 12 to 95.6 µM). For the same molecule, the MIC [15] was 3.9 to 31.2 µg/mL (≈ 12 to 95.6 µM), the MIC [16] was 3.9 to 31.2 µg/mL (≈ 12 to 95.6 µM) and the MIC [17] was 3.9 to 31.2 µg/mL (≈ 12 to 95.6 µM). For the same molecule, the MIC [18] was 3.9 to 31.2 µg/mL (≈ 12 to 95.6 µM), the MIC [19] was 3.9 to 31.2 µg/mL (≈ 12 to 95.6 µM) and the MIC [20] was 3.9 to 31.2 µg/mL (≈ 12 to 95.6 µM). For the same molecule, the MIC [21] was 3.9 to 31.2 µg/mL (≈ 12 to 95.6 µM), the IC50 [22] was 26 µM and the MIC [23] was 3.9 to 31.2 µg/mL (≈ 12 to 95.6 µM). The MIC [24] was 3.9 to 31.2 µg/mL (≈ 12 to 95.6 µM) and the MIC [25] was 3.9 to 31.2 µg/mL (≈ 12 to 95.6 µM).

`COc1cc(/C=C/c2cc(/C=C/c3ccc(OCC(=O)Nc4ccccc4C)c(OC)c3)[nH]n2)ccc1OCC(=O)Nc1ccccc1C` gave an MIC [26] of 10 to 20 µg/mL (≈ 15.2 to 30.4 µM).

In the case of `COc1cc(/C=C/c2cc(/C=C/c3ccc(OCC(=O)NC45CC6CC(CC(C6)C4)C5)c(OC)c3)[nH]n2)ccc1OCC(=O)NC12CC3CC(CC(C3)C1)C2`, the MIC [26] is reported as 10 to 20 µg/mL (≈ 13.4 to 26.8 µM).

`COc1cc(/C=C/c2cc(/C=C/c3ccc(OCC(=O)Nc4ccc(C)cc4)c(OC)c3)[nH]n2)ccc1OCC(=O)Nc1ccc(C)cc1` gave an MIC [26] of 10 to 20 µg/mL (≈ 15.2 to 30.4 µM).

In the case of `Cc1ccc(NC(C)c2c(O)c3ccccc3oc2=O)cc1` (stereo unspecified), the MIC [12] is reported as 3.9 to 7.8 µg/mL (≈ 13.2 to 26.4 µM), the MIC [13] is reported as 3.9 to 7.8 µg/mL (≈ 13.2 to 26.4 µM) and the MIC [14] is reported as 3.9 to 7.8 µg/mL (≈ 13.2 to 26.4 µM). The MIC [15] was 3.9 to 7.8 µg/mL (≈ 13.2 to 26.4 µM), the MIC [16] was 3.9 to 7.8 µg/mL (≈ 13.2 to 26.4 µM) and the MIC [17] was 3.9 to 7.8 µg/mL (≈ 13.2 to 26.4 µM). It also gave an MIC [18] of 3.9 to 7.8 µg/mL (≈ 13.2 to 26.4 µM), an MIC [19] of 3.9 to 7.8 µg/mL (≈ 13.2 to 26.4 µM) and an MIC [20] of 3.9 to 7.8 µg/mL (≈ 13.2 to 26.4 µM). For the same molecule, the MIC [21] was 3.9 to 7.8 µg/mL (≈ 13.2 to 26.4 µM), the IC50 [22] was 94 µM and the MIC [23] was 3.9 to 7.8 µg/mL (≈ 13.2 to 26.4 µM). The MIC [24] was 3.9 to 7.8 µg/mL (≈ 13.2 to 26.4 µM) and the MIC [25] was 3.9 to 7.8 µg/mL (≈ 13.2 to 26.4 µM).

Molecule `COc1cc(/C=C/c2cc(/C=C/c3ccc(OCC(=O)Nc4cccc(C(C)=O)c4)c(OC)c3)[nH]n2)ccc1OCC(=O)Nc1cccc(C(C)=O)c1` has an MIC [26] of 10 to 20 µg/mL (≈ 14 to 28 µM).

`COc1c2cc(C)cc1n1cc(ccc3cn(c4cc(C)cc(c4OC)n4cc(ccc5cn2c2ccccc52)c2ccccc24)c2ccccc32)c2ccccc21` showed an IC50 [3] of 28 µg/mL (≈ 37.2 µM), an MIC [27] of 7.81 to 31.2 µg/mL (≈ 10.4 to 41.5 µM) and an MIC [28] of 7.81 to 31.2 µg/mL (≈ 10.4 to 41.5 µM). The MIC [29] was 7.81 to 31.2 µg/mL (≈ 10.4 to 41.5 µM) and the MIC [30] was 7.81 to 31.2 µg/mL (≈ 10.4 to 41.5 µM).

`Cc1c(O)cc(CCCCCCCCCC[P+](c2ccccc2)(c2ccccc2)c2ccccc2)c(O)c1C` gave an MIC [31] of 0.6 to 19 µg/mL and an MIC [32] of 0.6 µg/mL.

Molecule `Cc1ccc(C(C)C)cc1O` [CARVACROL] has an MIC [33] of 1.25 µg/mL (≈ 8.32 µM) and an MIC [34] of 2.5 µg/mL (≈ 16.6 µM).
